Results as given in publication PMC7011996 (Journal of Enzyme Inhibition and Medicinal Chemistry, 2017).

Biological target: T1, hCA XII (Homo sapiens, UniProt O43570)
T1 construct: gene CA12
Test: stopped-flow CO2 hydration assay
Format: biochemical

T1 sequence (O43570 25-354): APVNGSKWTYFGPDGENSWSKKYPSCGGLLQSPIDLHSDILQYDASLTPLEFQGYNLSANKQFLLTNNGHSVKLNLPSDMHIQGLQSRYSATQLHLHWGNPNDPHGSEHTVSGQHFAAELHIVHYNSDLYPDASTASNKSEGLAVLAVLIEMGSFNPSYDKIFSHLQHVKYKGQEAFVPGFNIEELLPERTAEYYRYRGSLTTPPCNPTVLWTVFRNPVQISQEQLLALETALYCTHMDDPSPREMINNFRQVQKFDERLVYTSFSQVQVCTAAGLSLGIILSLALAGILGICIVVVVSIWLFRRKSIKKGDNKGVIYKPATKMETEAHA

- Ki: 12.5 nM
Compound: NS(=O)(=O)c1ccc(CC[n+]2c(-c3ccccc3)cc(-c3ccccc3)cc2-c2ccccc2)cc1 [compound 2, 1-(4-sulfamoylphenyl-ethyl)-2,4,6-triphenylpyridinium perchlorate]
